Source: patent publication US12365696B2, “Small-molecule focal adhesion kinase (FAK) inhibitors” (DANA-FARBER CANCER INSTITUTE, INC., priority 2019, dated 2025)

Tests used:
Assay in all cases: KINOMEscan
Assay type in all cases: binding
[1] = target: QSK (Homo sapiens (Human), UniProt Q9Y2K2); settings: 10000 nM, read-out: Percent Control
[2] = target: PIP5K1C (Homo sapiens (Human), UniProt O60331); settings: 10000 nM, read-out: Percent Control
[3] = target: IRAK3 (Homo sapiens (Human), UniProt Q9Y616); settings: IRAK3, 10000 nM; read-out: Percent Control
[4] = target: TNK2 (Homo sapiens (Human), UniProt Q07912); settings: TNK2, 10000 nM; read-out: Percent Control
[5] = target: DCAMKL1 (Homo sapiens (Human), UniProt O15075); settings: DCAMKL1, 10000 nM; read-out: Percent Control
[6] = target: BIKE (Homo sapiens (Human), UniProt Q9NSY1); settings: 10000 nM, read-out: Percent Control
[7] = target: FER (Homo sapiens (Human), UniProt P16591); settings: 10000 nM, read-out: Percent Control
[8] = target: PIK4CB (Homo sapiens (Human), UniProt Q9UBF8); settings: 10000 nM, read-out: Percent Control
[9] = target: KIT(L576P) (Homo sapiens (Human), UniProt P10721, L576P); settings: 10000 nM, read-out: Percent Control
[10] = target: MLK2 (Homo sapiens (Human), UniProt Q02779); settings: MLK2, 10000 nM; read-out: Percent Control
[11] = target: ERBB3 (Homo sapiens (Human), UniProt P21860); settings: ERBB3, 10000 nM; read-out: Percent Control
[12] = target: AURKB (Homo sapiens (Human), UniProt Q96GD4); settings: 10000 nM, read-out: Percent Control
AURKB, sequence (Q96GD4 whole entry): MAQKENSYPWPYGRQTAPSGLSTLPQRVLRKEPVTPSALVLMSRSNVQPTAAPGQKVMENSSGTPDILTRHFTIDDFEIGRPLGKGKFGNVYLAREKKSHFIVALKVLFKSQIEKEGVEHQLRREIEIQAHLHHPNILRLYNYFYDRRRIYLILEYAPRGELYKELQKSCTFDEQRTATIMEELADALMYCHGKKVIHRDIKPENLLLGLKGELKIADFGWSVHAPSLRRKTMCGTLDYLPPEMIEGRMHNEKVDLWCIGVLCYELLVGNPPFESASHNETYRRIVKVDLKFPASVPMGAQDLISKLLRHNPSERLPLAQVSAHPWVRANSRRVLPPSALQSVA

[13] = target: PRKCD (Homo sapiens (Human), UniProt Q05655); settings: 10000 nM, read-out: Percent Control
[14] = target: AKT2 (Homo sapiens (Human), UniProt P31751); settings: AKT2, 10000 nM; read-out: Percent Control
[15] = target: ERN1 (Homo sapiens (Human), UniProt O75460); settings: ERN1, 10000 nM; read-out: Percent Control
[16] = target: PKAC-alpha (Homo sapiens (Human), UniProt P17612); settings: 10000 nM, read-out: Percent Control
[17] = target: CDC2L2 (Homo sapiens (Human), UniProt Q9UQ88); settings: CDC2L2, 10000 nM; read-out: Percent Control
CDC2L2, sequence (Q9UQ88 whole entry): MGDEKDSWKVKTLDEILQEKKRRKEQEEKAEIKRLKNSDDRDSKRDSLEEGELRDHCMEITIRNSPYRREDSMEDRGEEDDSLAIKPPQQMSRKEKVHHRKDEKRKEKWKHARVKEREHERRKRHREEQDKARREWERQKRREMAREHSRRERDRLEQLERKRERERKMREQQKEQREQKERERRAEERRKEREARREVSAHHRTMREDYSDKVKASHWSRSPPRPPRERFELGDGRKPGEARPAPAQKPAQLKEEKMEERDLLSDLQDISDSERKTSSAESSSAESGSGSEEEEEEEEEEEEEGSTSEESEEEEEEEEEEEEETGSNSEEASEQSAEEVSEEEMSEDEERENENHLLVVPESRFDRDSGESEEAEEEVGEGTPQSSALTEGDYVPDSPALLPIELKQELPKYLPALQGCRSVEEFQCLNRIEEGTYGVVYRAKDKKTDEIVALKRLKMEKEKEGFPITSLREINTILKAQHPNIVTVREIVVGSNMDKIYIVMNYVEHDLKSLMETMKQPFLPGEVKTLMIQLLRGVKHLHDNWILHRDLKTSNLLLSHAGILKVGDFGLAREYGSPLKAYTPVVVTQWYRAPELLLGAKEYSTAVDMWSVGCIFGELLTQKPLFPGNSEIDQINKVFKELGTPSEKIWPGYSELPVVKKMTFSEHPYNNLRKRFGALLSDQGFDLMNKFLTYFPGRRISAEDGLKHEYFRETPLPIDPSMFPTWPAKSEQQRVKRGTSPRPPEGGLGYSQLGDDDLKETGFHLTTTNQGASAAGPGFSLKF

[18] = target: CAMK1B (Homo sapiens (Human), UniProt Q6P2M8); settings: 10000 nM, read-out: Percent Control
[19] = target: LATS1 (Homo sapiens (Human), UniProt O95835); settings: LATS1, 10000 nM; read-out: Percent Control
LATS1, sequence (O95835 whole entry): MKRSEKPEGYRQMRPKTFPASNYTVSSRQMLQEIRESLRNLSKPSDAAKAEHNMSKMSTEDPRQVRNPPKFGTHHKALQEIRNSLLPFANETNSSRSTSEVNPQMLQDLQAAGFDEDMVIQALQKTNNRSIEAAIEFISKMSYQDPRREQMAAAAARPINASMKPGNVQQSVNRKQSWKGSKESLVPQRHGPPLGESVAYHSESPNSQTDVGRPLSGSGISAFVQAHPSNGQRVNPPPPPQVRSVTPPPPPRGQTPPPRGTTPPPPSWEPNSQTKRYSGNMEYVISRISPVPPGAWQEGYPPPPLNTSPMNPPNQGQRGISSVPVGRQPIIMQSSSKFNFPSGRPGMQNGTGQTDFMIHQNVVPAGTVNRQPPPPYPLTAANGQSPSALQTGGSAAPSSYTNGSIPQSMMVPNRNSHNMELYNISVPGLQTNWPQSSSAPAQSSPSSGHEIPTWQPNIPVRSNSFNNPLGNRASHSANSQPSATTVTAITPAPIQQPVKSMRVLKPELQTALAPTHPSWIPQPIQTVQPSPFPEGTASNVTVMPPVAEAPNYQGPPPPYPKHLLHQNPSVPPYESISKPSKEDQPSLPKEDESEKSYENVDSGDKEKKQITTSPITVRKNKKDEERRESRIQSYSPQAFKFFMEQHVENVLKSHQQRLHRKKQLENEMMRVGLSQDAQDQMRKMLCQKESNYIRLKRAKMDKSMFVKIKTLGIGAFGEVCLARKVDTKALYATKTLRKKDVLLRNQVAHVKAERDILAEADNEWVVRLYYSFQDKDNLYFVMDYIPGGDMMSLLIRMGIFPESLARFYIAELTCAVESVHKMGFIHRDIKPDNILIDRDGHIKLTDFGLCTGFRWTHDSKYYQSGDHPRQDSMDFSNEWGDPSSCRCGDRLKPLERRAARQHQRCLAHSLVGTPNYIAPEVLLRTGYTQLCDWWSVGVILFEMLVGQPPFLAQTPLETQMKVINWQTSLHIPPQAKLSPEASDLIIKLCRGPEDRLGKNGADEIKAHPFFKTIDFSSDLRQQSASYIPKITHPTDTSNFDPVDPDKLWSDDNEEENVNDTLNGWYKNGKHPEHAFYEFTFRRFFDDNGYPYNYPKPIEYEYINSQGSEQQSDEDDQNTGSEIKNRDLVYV

[20] = target: ERK3 (Homo sapiens (Human), UniProt Q16659); settings: ERK3, 10000 nM; read-out: Percent Control
[21] = target: EPHB2 (Homo sapiens (Human), UniProt P29323); settings: EPHB2, 10000 nM; read-out: Percent Control
[22] = target: AMPK-alpha1 (Homo sapiens (Human), UniProt Q13131); settings: AMPK-alpha1, 10000 nM; read-out: Percent Control
AMPK-alpha1, sequence (Q13131 whole entry): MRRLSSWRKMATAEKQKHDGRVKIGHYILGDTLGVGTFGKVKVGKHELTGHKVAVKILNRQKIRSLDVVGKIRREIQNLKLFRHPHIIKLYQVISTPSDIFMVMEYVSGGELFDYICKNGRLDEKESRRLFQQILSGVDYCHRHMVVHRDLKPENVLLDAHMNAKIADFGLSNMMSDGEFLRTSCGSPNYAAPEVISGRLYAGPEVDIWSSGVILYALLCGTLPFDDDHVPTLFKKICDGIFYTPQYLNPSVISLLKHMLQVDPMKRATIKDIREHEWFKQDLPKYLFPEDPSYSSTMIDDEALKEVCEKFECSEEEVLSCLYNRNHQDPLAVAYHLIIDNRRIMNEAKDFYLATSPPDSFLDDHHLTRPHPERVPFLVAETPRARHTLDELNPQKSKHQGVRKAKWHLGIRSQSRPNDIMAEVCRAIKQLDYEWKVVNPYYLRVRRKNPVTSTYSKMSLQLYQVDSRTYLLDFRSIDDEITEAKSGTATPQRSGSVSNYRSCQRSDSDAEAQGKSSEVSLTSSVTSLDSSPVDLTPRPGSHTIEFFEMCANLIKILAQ

[23] = target: SYK (Homo sapiens (Human), UniProt P43405); settings: 10000 nM, read-out: Percent Control
[24] = target: GRK2 (Homo sapiens (Human), UniProt P25098); settings: GRK2, 10000 nM; read-out: Percent Control
[25] = target: RSK1(Kin.Dom.1-N-terminal) (Homo sapiens (Human), UniProt Q15418); settings: 10000 nM, read-out: Percent Control
[26] = target: MAST1 (Homo sapiens (Human), UniProt Q9Y2H9); settings: MAST1, 10000 nM; read-out: Percent Control
[27] = target: ERK8 (Homo sapiens (Human), UniProt Q8TD08); settings: ERK8, 10000 nM; read-out: Percent Control
[28] = target: SGK3 (Homo sapiens (Human), UniProt Q96BR1); settings: SGK3, 10000 nM; read-out: Percent Control
[29] = target: MKK7 (Homo sapiens (Human), UniProt O14733); settings: MKK7, 10000 nM; read-out: Percent Control
MKK7, sequence (O14733 whole entry): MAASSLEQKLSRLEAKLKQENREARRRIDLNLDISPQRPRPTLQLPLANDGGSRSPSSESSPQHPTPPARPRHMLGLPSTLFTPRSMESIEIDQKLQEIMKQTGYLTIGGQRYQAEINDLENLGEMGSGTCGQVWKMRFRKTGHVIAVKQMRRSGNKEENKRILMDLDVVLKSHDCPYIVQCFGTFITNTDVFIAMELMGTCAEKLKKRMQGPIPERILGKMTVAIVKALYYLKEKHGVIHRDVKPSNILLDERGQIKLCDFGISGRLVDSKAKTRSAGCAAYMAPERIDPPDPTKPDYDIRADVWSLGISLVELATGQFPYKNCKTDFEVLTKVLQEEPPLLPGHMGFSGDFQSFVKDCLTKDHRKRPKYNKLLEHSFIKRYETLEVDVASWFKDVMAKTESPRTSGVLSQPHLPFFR

[30] = target: FGR (Homo sapiens (Human), UniProt P09769); settings: 10000 nM, read-out: Percent Control
[31] = target: HIPK2 (Homo sapiens (Human), UniProt Q9H2X6); settings: HIPK2, 10000 nM; read-out: Percent Control
[32] = target: LCK (Homo sapiens (Human), UniProt P06239); settings: 10000 nM, read-out: Percent Control
[33] = target: PIK3C2B (Homo sapiens (Human), UniProt O00750); settings: 10000 nM, read-out: Percent Control
PIK3C2B, sequence (O00750 whole entry): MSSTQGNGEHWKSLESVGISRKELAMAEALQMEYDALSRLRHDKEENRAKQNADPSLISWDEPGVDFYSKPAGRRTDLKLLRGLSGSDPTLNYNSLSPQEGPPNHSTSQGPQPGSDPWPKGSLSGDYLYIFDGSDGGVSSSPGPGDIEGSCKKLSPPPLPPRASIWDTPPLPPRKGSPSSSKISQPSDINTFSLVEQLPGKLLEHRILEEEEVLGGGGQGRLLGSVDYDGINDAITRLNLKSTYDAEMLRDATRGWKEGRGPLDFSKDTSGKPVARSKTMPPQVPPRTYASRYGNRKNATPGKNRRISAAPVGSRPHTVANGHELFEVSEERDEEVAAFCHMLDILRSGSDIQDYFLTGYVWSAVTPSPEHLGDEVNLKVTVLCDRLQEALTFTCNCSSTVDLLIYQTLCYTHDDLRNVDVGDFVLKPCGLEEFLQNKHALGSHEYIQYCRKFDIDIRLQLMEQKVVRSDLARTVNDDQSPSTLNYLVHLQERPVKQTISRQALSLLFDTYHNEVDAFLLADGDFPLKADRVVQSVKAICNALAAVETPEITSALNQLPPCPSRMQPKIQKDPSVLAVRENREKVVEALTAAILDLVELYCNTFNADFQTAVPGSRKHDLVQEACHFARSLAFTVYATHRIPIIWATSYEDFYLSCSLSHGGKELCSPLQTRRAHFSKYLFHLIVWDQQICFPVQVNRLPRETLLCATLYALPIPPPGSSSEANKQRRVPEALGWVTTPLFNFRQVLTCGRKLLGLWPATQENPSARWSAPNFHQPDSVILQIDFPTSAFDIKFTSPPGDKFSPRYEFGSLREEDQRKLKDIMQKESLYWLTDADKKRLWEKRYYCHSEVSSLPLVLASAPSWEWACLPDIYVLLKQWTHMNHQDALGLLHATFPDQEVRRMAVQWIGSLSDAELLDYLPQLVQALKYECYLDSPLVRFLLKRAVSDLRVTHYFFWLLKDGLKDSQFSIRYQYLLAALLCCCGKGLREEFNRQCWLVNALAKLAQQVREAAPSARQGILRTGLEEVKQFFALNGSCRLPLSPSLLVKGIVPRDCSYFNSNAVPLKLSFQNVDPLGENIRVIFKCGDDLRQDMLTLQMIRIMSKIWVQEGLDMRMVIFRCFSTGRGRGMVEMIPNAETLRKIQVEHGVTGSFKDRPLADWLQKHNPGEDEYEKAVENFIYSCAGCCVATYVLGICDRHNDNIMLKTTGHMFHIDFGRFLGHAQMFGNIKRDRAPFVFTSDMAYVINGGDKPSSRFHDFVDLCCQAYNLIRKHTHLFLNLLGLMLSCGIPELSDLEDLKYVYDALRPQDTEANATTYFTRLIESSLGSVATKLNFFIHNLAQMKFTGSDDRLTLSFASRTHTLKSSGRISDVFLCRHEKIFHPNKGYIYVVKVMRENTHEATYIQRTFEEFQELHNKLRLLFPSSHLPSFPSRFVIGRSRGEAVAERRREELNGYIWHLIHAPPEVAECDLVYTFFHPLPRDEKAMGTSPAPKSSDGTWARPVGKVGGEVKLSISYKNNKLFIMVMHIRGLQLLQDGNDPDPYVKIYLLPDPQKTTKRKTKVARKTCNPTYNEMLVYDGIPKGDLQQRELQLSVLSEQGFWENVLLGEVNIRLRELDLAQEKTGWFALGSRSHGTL

[34] = target: BRSK2 (Homo sapiens (Human), UniProt Q8IWQ3); settings: BRSK2, 10000 nM; read-out: Percent Control
[35] = target: ABL1(H396P)-phosphorylated (Homo sapiens (Human), UniProt P00519, H396P); settings: 10000 nM, read-out: Percent Control

SMILES | remaining binding at 10 µM [1] [%] | remaining binding at 10 µM [2] [%] | remaining binding at 10 µM [3] [%] | remaining binding at 10 µM [4] [%] | remaining binding at 10 µM [5] [%] | remaining binding at 10 µM [6] [%] | remaining binding at 10 µM [7] [%] | remaining binding at 10 µM [8] [%] | remaining binding at 10 µM [9] [%] | remaining binding at 10 µM [10] [%] | remaining binding at 10 µM [11] [%] | remaining binding at 10 µM [12] [%] | remaining binding at 10 µM [13] [%] | remaining binding at 10 µM [14] [%] | remaining binding at 10 µM [15] [%] | remaining binding at 10 µM [16] [%] | remaining binding at 10 µM [17] [%] | remaining binding at 10 µM [18] [%] | remaining binding at 10 µM [19] [%] | remaining binding at 10 µM [20] [%] | other results
COc1cc(N2CCC(N3CCN(C)CC3)CC2)ccc1Nc1ncc2c(n1)N(C)c1sc(C)nc1C(=O)N2 [Compound 3, 6-((2-methoxy-4-(4-(4-methylpiperazin-1-yl)piperidin-1-yl)phenyl)amino)-2,4-dimethyl-4,9-dihydro-10H-pyrimido[5,4-b]thiazolo[5,4-e][1,4]diazepin-10-one] | 100 | 99 | 80 | 20 | 91 | 73 | 74 | 85 | 47 | 96 | 100 | 100 | 86 | 75 | 93 | 72 | 87 | 95 | 77 | 89 | remaining binding at 10 µM [21]: 53%; remaining binding at 10 µM [22]: 79%; remaining binding at 10 µM [23]: 77%; remaining binding at 10 µM [24]: 100%; remaining binding at 10 µM [25]: 78%; remaining binding at 10 µM [26]: 84%; remaining binding at 10 µM [27]: 86%; remaining binding at 10 µM [28]: 100%; remaining binding at 10 µM [29]: 100%; remaining binding at 10 µM [30]: 77%; remaining binding at 10 µM [31]: 100%; remaining binding at 10 µM [32]: 45%; remaining binding at 10 µM [33]: 86%; remaining binding at 10 µM [34]: 78%; remaining binding at 10 µM [35]: 19%
COc1cc(N2CCC(N3CCN(C)CC3)CC2)ccc1Nc1ncc2c(n1)N(C)c1sc(C)nc1C(=O)N2C [Compound 5, 6-((2-methoxy-4-(4-(4-methylpiperazin-1-yl)piperidin-1-yl)phenyl)amino)-2,4,9-trimethyl-4,9-dihydro-10H-pyrimido[5,4-b]thiazolo[5,4-e][1,4]diazepin-10-one] | 94 | 95 | 99 | 87 | 7.9 | 100 | 57 | 100 | 100 | 76 | 100 | 99 | 94 | 100 | 88 | 100 | 95 | 92 | 50 | 100 | remaining binding at 10 µM [21]: 99%; remaining binding at 10 µM [22]: 91%; remaining binding at 10 µM [23]: 89%; remaining binding at 10 µM [24]: 100%; remaining binding at 10 µM [25]: 83%; remaining binding at 10 µM [26]: 100%; remaining binding at 10 µM [27]: 100%; remaining binding at 10 µM [28]: 100%; remaining binding at 10 µM [29]: 100%; remaining binding at 10 µM [30]: 100%; remaining binding at 10 µM [31]: 100%; remaining binding at 10 µM [32]: 100%; remaining binding at 10 µM [33]: 100%; remaining binding at 10 µM [34]: 91%; remaining binding at 10 µM [35]: 100%
